In patent publication US10435398B2, “Oxazole orexin receptor antagonists” (MERCK SHARP & DOHME CORP., priority 2014, dated 2019):
pIC50: −log10 of the molar value.

What was measured:
[1] = molecular target: human orexin-1 receptor (Homo sapiens (Human), UniProt O43613); assay: FLIPR Ca2+ Flux Assay, hOX1R; format: cell-based; conditions: CHO cells expressing human orexin-1 receptor; agonist 70 pM Ala-6,12 human orexin-A
Method: (§1) The utility of the compounds in accordance with the present invention as orexin receptor OX1R and/or OX2R antagonists may be readily determined without undue experimentation by methodology well known in the art, including the “FLIPR Ca^2+ Flux Assay” (Okumura et al., Biochem. Biophys. Res. Comm. 280:976-981, 2001). In a typical experiment the OX1 and OX2 receptor antagonistic activity of the compounds of the present invention was determined in accordance with the following experimental method. For intracellular calcium measurements, Chinese hamster ovary (CHO) cells expressing the rat or human orexin-1 receptor or the human orexin-2 receptor, are grown in Iscove's modified DMEM containing 2 mM L-glutamine, […], 1% hypoxanthine-thymidine supplement, 100 U/ml penicillin, 100 μg/ml streptomycin and 10% heat-inactivated fetal calf serum (FCS). The cells are seeded at 20,000 cells/well into Becton-Dickinson black 384-well clear bottom sterile plates coated with poly-D-lysine. All reagents were from GIBCO-Invitrogen Corp. The seeded plates are incubated overnight at 37° C. and 5% CO2. Ala-6,12 human orexin-A as the agonist is prepared as a 1 mM stock solution in 1% bovine serum albumin (BSA) and diluted in assay buffer (HBSS containing 20 mM HEPES, 0.1% BSA and 2.5 mM probenecid, pH7.4) for use in the assay at a final concentration of 70 pM. Test compounds are prepared as 10 mM stock solution in DMSO, then diluted in 384-well plates, first in DMSO, then assay buffer. On the day of the assay, cells are washed 3 times with 100 μl assay buffer and then incubated for 60 min (37° C., 5% CO2) in 60 μl assay buffer containing 1 μM Fluo-4AM ester, 0.02% pluronic acid, and 1% BSA. The dye loading solution is then aspirated and cells are washed 3 times with 100 μl assay buffer. 30 μl of that same buffer is left in each well. Within the Fluorescent Imaging Plate Reader (FLIPR, Molecular Devices), test compounds are added to the plate in a volume of 25 μl, incubated for 5 min and finally 25 μl of agonist is added. Fluorescence is measured for each well at 1 second intervals for 5 minutes and the height of each fluorescence peak is compared to the height of the fluorescence peak induced by 70 pM Ala-6,12 orexin-A with buffer in place of antagonist. For each antagonist, IC50 value (the concentration of compound needed to inhibit 50% of the agonist response) is determined. Alternatively, compound potency can be assessed by a radioligand binding assay (described in Bergman et. al. Bioorg. Med. Chem. Lett. 2008, 18, 1425-1430) in which the inhibition constant (Ki) is determined in membranes prepared from CHO cells expressing either the OX1 or OX2 receptor. The intrinsic orexin receptor antagonist activity of a compound which may be used in the present invention may be determined by these assays.

[2] = molecular target: human orexin-2 receptor (Homo sapiens (Human), UniProt O43614); assay: FLIPR Ca2+ Flux Assay, hOX2R; format: cell-based; conditions: CHO cells expressing human orexin-2 receptor; agonist 70 pM Ala-6,12 human orexin-A
Method: as §1

Sequence of human orexin-1 receptor (O43613 whole entry): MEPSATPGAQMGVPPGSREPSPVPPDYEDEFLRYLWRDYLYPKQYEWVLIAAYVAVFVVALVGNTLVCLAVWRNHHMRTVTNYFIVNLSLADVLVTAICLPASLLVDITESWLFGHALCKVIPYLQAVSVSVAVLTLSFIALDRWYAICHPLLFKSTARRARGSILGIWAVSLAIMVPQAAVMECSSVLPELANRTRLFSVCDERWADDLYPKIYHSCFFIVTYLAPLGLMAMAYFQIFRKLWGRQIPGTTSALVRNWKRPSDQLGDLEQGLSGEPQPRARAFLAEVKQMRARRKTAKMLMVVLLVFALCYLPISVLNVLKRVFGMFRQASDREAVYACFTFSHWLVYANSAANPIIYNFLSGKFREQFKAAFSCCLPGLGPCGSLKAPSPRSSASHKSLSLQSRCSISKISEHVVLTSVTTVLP
Sequence of human orexin-2 receptor (O43614 whole entry): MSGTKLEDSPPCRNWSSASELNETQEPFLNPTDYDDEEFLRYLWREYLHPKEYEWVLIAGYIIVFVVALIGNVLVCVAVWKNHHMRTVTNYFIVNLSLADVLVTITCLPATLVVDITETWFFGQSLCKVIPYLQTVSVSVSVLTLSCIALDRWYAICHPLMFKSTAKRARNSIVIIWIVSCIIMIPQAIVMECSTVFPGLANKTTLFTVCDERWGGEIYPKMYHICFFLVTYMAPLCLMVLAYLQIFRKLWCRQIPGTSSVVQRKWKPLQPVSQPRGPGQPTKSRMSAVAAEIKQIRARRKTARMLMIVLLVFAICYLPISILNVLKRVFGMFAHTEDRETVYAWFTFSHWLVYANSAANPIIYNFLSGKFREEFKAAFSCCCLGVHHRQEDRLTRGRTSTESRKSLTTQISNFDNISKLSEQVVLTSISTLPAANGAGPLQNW

Compound	pIC50 [1]	pIC50 [2]
C=CCN(CCc1nc(C(C)(C)O)c(C)o1)C(=O)c1ccccc1-n1nccn1 [Example 21, N-{2-[4-(1-Hydroxy-1-methylethyl)-5-methyl-1,3-oxazol-2-yl]ethyl}-N-prop-2-en-1-yl-2-(2H-1,2,3-triazol-2-yl)benzamide]	6.00	7.72
CCCN(CCc1nc(C(C)(C)O)c(C)o1)C(=O)c1ccccc1-n1nccn1 [Example 22, N-{2-[4-(1-Hydroxy-1-methylethyl)-5-methyl-1,3-oxazol-2-yl]ethyl}-N-propyl-2-(2H-1,2,3-triazol-2-yl)benzamide]	5.62	7.72
Cc1oc(CCN(CC2CC2)C(=O)c2ccccc2-n2nccn2)nc1C(C)(C)O [Example 23, N-(Cyclopropylmethyl)-N-{2-[4-(1-hydroxy-1-methylethyl)-5-methyl-1,3-oxazol-2-yl]ethyl}-2-(2H-1,2,3-triazol-2-yl)benzamide]	5.55	7.68
Cc1oc(CCN(CC(F)F)C(=O)c2ccccc2-n2nccn2)nc1C(C)(C)O [Example 24, N-(2,2-Difluoroethyl)-N-{2-[4-(1-hydroxy-1-methylethyl)-5-methyl-1,3-oxazol-2-yl]ethyl}-2-(2H-1,2,3-triazol-2-yl)benzamide]	< 5.00	7.17
Cc1oc(CCN(C(=O)c2ccccc2-n2nccn2)C(C)C)nc1C(C)(C)O [Example 25, N-{2-[4-(1-Hydroxy-1-methylethyl)-5-methyl-1,3-oxazol-2-yl]ethyl}-N-(1-methylethyl)-2-(2H-1,2,3-triazol-2-yl)benzamide]	< 5.00	6.82
Cc1oc(CCN(CCCO)C(=O)c2ccccc2-n2nccn2)nc1C(C)(C)O [Example 27, N-{2-[4-(1-Hydroxy-1-methylethyl)-5-methyl-1,3-oxazol-2-yl]ethyl}-N-(3-hydroxypropyl)-2-(2H-1,2,3-triazol-2-yl)benzamide]	< 5.00	6.52
Cc1oc(CCN(CCO)C(=O)c2ccccc2-n2nccn2)nc1C(C)(C)O [Example 28, N-(2-hydroxyethyl)-N-(2-(4-(2-hydroxypropan-2-yl)-5-methyloxazol-2-yl)ethyl)-2-(2H-1,2,3-triazol-2-yl)benzamide]	< 5.00	7.01
COCCN(CCc1nc(C(C)(C)O)c(C)o1)C(=O)c1ccccc1-n1nccn1 [Example 29, N-(2-(4-(2-Hydroxypropan-2-yl)-5-methyloxazol-2-yl)ethyl)-N-(2-methoxyethyl)-2-(2H-1,2,3-triazol-2-yl)benzamide]	< 5.00	7.72
Cc1oc(CCN(C)C(=O)c2ccccc2-n2nccn2)nc1C(C)(C)O [Example 30, N-(2-(4-(2-Hydroxypropan-2-yl)-5-methyloxazol-2-yl)ethyl)-N-methyl-2-(2H-1,2,3-triazol-2-yl)benzamide]	< 5.00	6.41
Cc1oc(CCN(C(=O)c2ccccc2-n2nccn2)C2CC2)nc1C(C)(C)O [Example 31, N-Cyclopropyl-N-(2-(4-(2-hydroxypropan-2-yl)-5-methyloxazol-2-yl)ethyl)-2-(2H-1,2,3-triazol-2-yl)benzamide]	5.12	7.38
Cc1oc(CCN(C(=O)c2ccccc2-n2nccn2)C2CCC2)nc1C(C)(C)O [Example 32, N-Cyclobutyl-N-(2-(4-(2-hydroxypropan-2-yl)-5-methyloxazol-2-yl)ethyl)-2-(2H-1,2,3-triazol-2-yl)benzamide]	5.09	7.42
COCCCN(CCc1nc(C(C)(C)O)c(C)o1)C(=O)c1ccccc1-n1nccn1 [Example 33, N-(2-(4-(2-Hydroxypropan-2-yl)-5-methyloxazol-2-yl)ethyl)-N-(3-methoxypropyl)-2-(2H-1,2,3-triazol-2-yl)benzamide]	< 5.00	6.92
